Legend:
lambsquarters = assay: Test C preemergence/postemergence greenhouse plant response rating 0 to 100; assay type: in vivo, Chenopodium album; conditions: for Plant response rating Lambsquarters: 0 to 100 scale
Outline: (§1)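 Compounds in non-phytotoxic solvent went onto sandy loam before emergence (seeded one day earlier) or onto plants at the one-to-four leaf stage. Duck salad was treated via flood water (~2.5 cm, maintained) over silt loam.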

downy brome = assay: as above; assay type: in vivo, Bromus tectorum; conditions: for Plant response rating Downy Brome: 0 to 100 scale
Outline: as §1

barley = assay: as above; assay type: in vivo, Hordeum vulgare; conditions: for Plant response rating Barley Igri: 0 to 100 scale
Outline: as §1

chickweed [1] = assay: as above; assay type: in vivo, Stellaria media; conditions: for Plant response rating, Chickweed: 0 to 100 scale
Outline: as §1

wild oat = assay: Test B preemergence/postemergence greenhouse plant response rating 0 to 10; assay type: in vivo, Avena fatua; conditions: for Plant response rating, Wild oat: 0 to 10 scale
Outline: (§2)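 Both application timings were run together: seeds got compound preemergence, and established seedlings (two to eighteen cm) got it postemergence. Non-phytotoxic solvent carried the chemical. Ratings are visual, versus controls, at twelve to sixteen days.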

corn = assay: as above; assay type: in vivo, Zea mays; conditions: for Plant response rating, Corn: 0 to 10 scale
Outline: as §2

sugar beet = assay: Test C preemergence/postemergence greenhouse plant response rating 0 to 100; assay type: in vivo, Beta vulgaris; conditions: for Plant response rating, Sugar beet: 0 to 100 scale
Outline: as §1

sorghum = assay: Test B preemergence/postemergence greenhouse plant response rating 0 to 10; assay type: in vivo, Sorghum bicolor; conditions: for Plant response rating, Sorghum: 0 to 10 scale
Outline: as §2

ryegrass = assay: Test C preemergence/postemergence greenhouse plant response rating 0 to 100; assay type: in vivo, Lolium multiflorum; conditions: for Plant response rating Ryegrass: 0 to 100 scale
Outline: as §1

duck salad = assay: Test C flood test plant response rating 0 to 100; assay type: in vivo, Heteranthera limosa; conditions: for Plant response rating Duck salad: flood test species listed under POSTEMERGENCE, 0 to 100 scale
Outline: as §1

cotton = assay: Test C preemergence/postemergence greenhouse plant response rating 0 to 100; assay type: in vivo, Gossypium hirsutum; conditions: for Plant response rating, Cotton: 0 to 100 scale
Outline: as §1

cheatgrass = assay: Test B preemergence/postemergence greenhouse plant response rating 0 to 10; assay type: in vivo, Bromus secalinus; conditions: for Plant response rating, Cheatgrass: 0 to 10 scale
Outline: as §2

velvetleaf = assay: Test C preemergence/postemergence greenhouse plant response rating 0 to 100; assay type: in vivo, Abutilon theophrasti; conditions: for Plant response rating, Velvetleaf: 0 to 100 scale
Outline: as §1

soybean = assay: as above; assay type: in vivo, Glycine max; conditions: for Plant response rating, Soybean: 0 to 100 scale
Outline: as §1

chickweed [2] = assay: Test B preemergence/postemergence greenhouse plant response rating 0 to 10; assay type: in vivo, Stellaria media; conditions: PREEMERGENCE
Outline: as §2

wild buckwheat [3] = assay: Test C preemergence/postemergence greenhouse plant response rating 0 to 100; assay type: in vivo, Polygonum convolvulus; conditions: for Plant response rating, Wild buckwheat: 0 to 100 scale
Outline: as §1

wild buckwheat [4] = assay: Test B preemergence/postemergence greenhouse plant response rating 0 to 10; assay type: in vivo, Polygonum convolvulus; conditions: for Plant response rating, Wild buckwheat: 0 to 10 scale
Outline: as §2

giant foxtail = assay: as above; assay type: in vivo, Setaria faberii; conditions: for Plant response rating, Giant foxtail: 0 to 10 scale
Outline: as §2

C#CC(C)Oc1cc(-c2nn3c(c2Br)CCCC3)c(F)cc1Cl (stereo not drawn) [Compound 66]
Plant response rating Lambsquarters (lambsquarters; POSTEMERGENCE, 62 g/ha): 100
Plant response rating Lambsquarters (lambsquarters; POSTEMERGENCE, 250 g/ha): 100
Plant response rating (0 to 100), Lambsquarters (lambsquarters; POSTEMERGENCE, Rate 4 g/ha): 30
Plant response rating Lambsquarters (lambsquarters; PREEMERGENCE, 62 g/ha): 100
Plant response rating Lambsquarters (lambsquarters; PREEMERGENCE, 250 g/ha): 100
Plant response rating (0 to 100), Lambsquarters (lambsquarters; PREEMERGENCE, Rate 4 g/ha): 0
Plant response rating (0 to 100), Lambsquarters (lambsquarters; Rate 16 g/ha, POSTEMERGENCE): 80
Plant response rating (0 to 100), Lambsquarters (lambsquarters; Rate 16 g/ha, PREEMERGENCE): 70
Plant response rating Downy Brome (downy brome; POSTEMERGENCE, 62 g/ha): 60
Plant response rating Downy Brome (downy brome; POSTEMERGENCE, 250 g/ha): 80
Plant response rating (0 to 100), Downy Brome (downy brome; POSTEMERGENCE, Rate 4 g/ha): 20
Plant response rating Downy Brome (downy brome; PREEMERGENCE, 62 g/ha): 30
Plant response rating Downy Brome (downy brome; PREEMERGENCE, 250 g/ha): 70
Plant response rating (0 to 100), Downy Brome (downy brome; PREEMERGENCE, Rate 4 g/ha): 0
Plant response rating (0 to 100), Downy Brome (downy brome; Rate 16 g/ha, POSTEMERGENCE): 40
Plant response rating (0 to 100), Downy Brome (downy brome; Rate 16 g/ha, PREEMERGENCE): 0
Plant response rating Barley Igri (barley; POSTEMERGENCE, 62 g/ha): 50
Plant response rating Barley Igri (barley; POSTEMERGENCE, 250 g/ha): 60
Plant response rating (0 to 100), Barley Igri (barley; POSTEMERGENCE, Rate 4 g/ha): 30
Plant response rating Barley Igri (barley; PREEMERGENCE, 62 g/ha): 0
Plant response rating Barley Igri (barley; PREEMERGENCE, 250 g/ha): 20
Plant response rating (0 to 100), Barley Igri (barley; PREEMERGENCE, Rate 4 g/ha): 0
Plant response rating (0 to 100), Barley Igri (barley; Rate 16 g/ha, POSTEMERGENCE): 30
Plant response rating (0 to 100), Barley Igri (barley; Rate 16 g/ha, PREEMERGENCE): 0
Plant response rating, Chickweed (chickweed [1]; POSTEMERGENCE, 62 g/ha): 95
Plant response rating, Chickweed (chickweed [1]; POSTEMERGENCE, 250 g/ha): 100
Plant response rating (0 to 100), Chickweed (chickweed [1]; POSTEMERGENCE, Rate 4 g/ha): 30
Plant response rating, Chickweed (chickweed [1]; PREEMERGENCE, 62 g/ha): 50
Plant response rating, Chickweed (chickweed [1]; PREEMERGENCE, 250 g/ha): 80
Plant response rating (0 to 100), Chickweed (chickweed [1]; PREEMERGENCE, Rate 4 g/ha): 0
Plant response rating (0 to 100), Chickweed (chickweed [1]; Rate 16 g/ha, POSTEMERGENCE): 70
Plant response rating (0 to 100), Chickweed (chickweed [1]; Rate 16 g/ha, PREEMERGENCE): 0
Plant response rating, Wild oat (wild oat; POSTEMERGENCE, Rate 50 g/ha): 5
Plant response rating, Wild oat (wild oat; PREEMERGENCE, Rate 50 g/ha): 2
Plant response rating (0 to 10 scale), Wild oat (wild oat; PREEMERGENCE, Rate 200 g/ha): 5
Plant response rating, Wild oat (wild oat; Rate 200 g/ha, POSTEMERGENCE): 6
Plant response rating, Corn (corn; POSTEMERGENCE, Rate 50 g/ha): 3
Plant response rating, Corn (corn; PREEMERGENCE, Rate 50 g/ha): 0
Plant response rating (0 to 10 scale), Corn (corn; PREEMERGENCE, Rate 200 g/ha): 0
Plant response rating, Corn (corn; Rate 200 g/ha, POSTEMERGENCE): 3
Plant response rating, Sugar beet (sugar beet; POSTEMERGENCE, 62 g/ha): 100
Plant response rating, Sugar beet (sugar beet; POSTEMERGENCE, 250 g/ha): 100
Plant response rating (0 to 100), Sugar beet (sugar beet; POSTEMERGENCE, Rate 4 g/ha): 80
Plant response rating, Sugar beet (sugar beet; PREEMERGENCE, 250 g/ha): 100
Plant response rating (0 to 100), Sugar beet (sugar beet; PREEMERGENCE, Rate 4 g/ha): 0
Plant response rating (0 to 100), Sugar beet (sugar beet; Rate 16 g/ha, POSTEMERGENCE): 100
Plant response rating (0 to 100), Sugar beet (sugar beet; Rate 16 g/ha, PREEMERGENCE): 50
Plant response rating, Sorghum (sorghum; POSTEMERGENCE, Rate 50 g/ha): 5
Plant response rating, Sorghum (sorghum; PREEMERGENCE, Rate 50 g/ha): 0
Plant response rating (0 to 10 scale), Sorghum (sorghum; PREEMERGENCE, Rate 200 g/ha): 0
Plant response rating, Sorghum (sorghum; Rate 200 g/ha, POSTEMERGENCE): 7
Plant response rating Ryegrass (ryegrass; POSTEMERGENCE, 62 g/ha): 50
Plant response rating Ryegrass (ryegrass; POSTEMERGENCE, 250 g/ha): 75
Plant response rating (0 to 100), Ryegrass (ryegrass; POSTEMERGENCE, Rate 4 g/ha): 10
Plant response rating Ryegrass (ryegrass; PREEMERGENCE, 62 g/ha): 50
Plant response rating Ryegrass (ryegrass; PREEMERGENCE, 250 g/ha): 70
Plant response rating (0 to 100), Ryegrass (ryegrass; PREEMERGENCE, Rate 4 g/ha): 0
Plant response rating (0 to 100), Ryegrass (ryegrass; Rate 16 g/ha, POSTEMERGENCE): 30
Plant response rating (0 to 100), Ryegrass (ryegrass; Rate 16 g/ha, PREEMERGENCE): 20
Plant response rating (0 to 100), Duck salad (duck salad; POSTEMERGENCE section, flood test, Rate 4 g/ha): 0
Plant response rating (0 to 100), Duck salad (duck salad; Rate 16 g/ha, under POSTEMERGENCE head (flood test species)): 30
Plant response rating Duck salad (duck salad; 62 g/ha): 75
Plant response rating Duck salad (duck salad; 250 g/ha): 90
Plant response rating, Cotton (cotton; POSTEMERGENCE, 62 g/ha): 100
Plant response rating, Cotton (cotton; POSTEMERGENCE, 250 g/ha): 100
Plant response rating (0 to 100), Cotton (cotton; POSTEMERGENCE, Rate 4 g/ha): 70
Plant response rating, Cotton (cotton; PREEMERGENCE, 62 g/ha): 40
Plant response rating, Cotton (cotton; PREEMERGENCE, 250 g/ha): 90
Plant response rating (0 to 100), Cotton (cotton; PREEMERGENCE, Rate 4 g/ha): 0
Plant response rating (0 to 100), Cotton (cotton; Rate 16 g/ha, POSTEMERGENCE): 85
Plant response rating (0 to 100), Cotton (cotton; Rate 16 g/ha, PREEMERGENCE): 0
Plant response rating, Cheatgrass (cheatgrass; POSTEMERGENCE, Rate 50 g/ha): 3
Plant response rating, Cheatgrass (cheatgrass; PREEMERGENCE, Rate 50 g/ha): 1
Plant response rating (0 to 10 scale), Cheatgrass (cheatgrass; PREEMERGENCE, Rate 200 g/ha): 6
Plant response rating, Cheatgrass (cheatgrass; Rate 200 g/ha, POSTEMERGENCE): 6
Plant response rating, Velvetleaf (velvetleaf; POSTEMERGENCE, 62 g/ha): 75
Plant response rating, Velvetleaf (velvetleaf; POSTEMERGENCE, 250 g/ha): 100
Plant response rating (0 to 100), Velvetleaf (velvetleaf; POSTEMERGENCE, Rate 4 g/ha): 60
Plant response rating, Velvetleaf (velvetleaf; PREEMERGENCE, 250 g/ha): 100
Plant response rating (0 to 100), Velvetleaf (velvetleaf; Rate 16 g/ha, POSTEMERGENCE): 65
Plant response rating (0 to 100), Velvetleaf (velvetleaf; Rate 16 g/ha, PREEMERGENCE): 70
Plant response rating, Soybean (soybean; POSTEMERGENCE, 62 g/ha): 60
Plant response rating, Soybean (soybean; POSTEMERGENCE, 250 g/ha): 70
Plant response rating (0 to 100), Soybean (soybean; POSTEMERGENCE, Rate 4 g/ha): 20
Plant response rating, Soybean (soybean; PREEMERGENCE, 250 g/ha): 20
Plant response rating (0 to 100), Soybean (soybean; PREEMERGENCE, Rate 4 g/ha): 0
Plant response rating (0 to 100), Soybean (soybean; Rate 16 g/ha, POSTEMERGENCE): 50
Plant response rating (0 to 100), Soybean (soybean; Rate 16 g/ha, PREEMERGENCE): 0
Plant response rating, Chickweed (chickweed [2]; Rate 50 g/ha, 0 to 10 scale): 4
Plant response rating (0 to 10 scale), Chickweed (chickweed [2]; Rate 200 g/ha): 5
Plant response rating, Wild buckwheat (wild buckwheat [3]; POSTEMERGENCE, 62 g/ha): 100
Plant response rating, Wild buckwheat (wild buckwheat [3]; POSTEMERGENCE, 250 g/ha): 100
Plant response rating (0 to 100), Wild buckwheat (wild buckwheat [3]; POSTEMERGENCE, Rate 4 g/ha): 100
Plant response rating, Wild buckwheat (wild buckwheat [3]; PREEMERGENCE, 250 g/ha): 100
Plant response rating (0 to 100), Wild buckwheat (wild buckwheat [3]; PREEMERGENCE, Rate 4 g/ha): 0
Plant response rating (0 to 100), Wild buckwheat (wild buckwheat [3]; Rate 16 g/ha, POSTEMERGENCE): 100
Plant response rating (0 to 100), Wild buckwheat (wild buckwheat [3]; Rate 16 g/ha, PREEMERGENCE): 75
Plant response rating, Wild buckwheat (wild buckwheat [4]; POSTEMERGENCE, Rate 50 g/ha): 10
Plant response rating, Wild buckwheat (wild buckwheat [4]; PREEMERGENCE, Rate 50 g/ha): 4
Plant response rating (0 to 10 scale), Wild buckwheat (wild buckwheat [4]; PREEMERGENCE, Rate 200 g/ha): 10
Plant response rating, Wild buckwheat (wild buckwheat [4]; Rate 200 g/ha, POSTEMERGENCE): 10
Plant response rating, Giant foxtail (giant foxtail; POSTEMERGENCE, Rate 50 g/ha): 7
Plant response rating, Giant foxtail (giant foxtail; PREEMERGENCE, Rate 50 g/ha): 0
Plant response rating (0 to 10 scale), Giant foxtail (giant foxtail; PREEMERGENCE, Rate 200 g/ha): 6
Plant response rating, Giant foxtail (giant foxtail; Rate 200 g/ha, POSTEMERGENCE): 6

Source: patent publication US6358885B1, “Substituted phenylheterocyclic herbicides” (Mississippi State University, priority 1992, dated 2002)
